Laboratory results reported in US20050221196A1, “Redox shuttle for rechargeable lithium-ion cell” (priority 2004, published 2005).
Each block holds one compound with its values, some of them ahead of it.

Columns and labels:
[1] = Cyclic voltammetry shuttle diffusion constant; assay type: physicochemical
Method: Further testing was carried out in coin cells made using 0.2 M 2,5-di-tert-butyl-1,4-dimethoxybenzene and 0.5 M LiBOB in 1:2 PC:DEC. […] For this cell the shuttle was singly ionized, the initially estimated electrode area was 1.3 cm^2 and the initially estimated electrode spacing was defined by the 25 μm separator. Based on measurements of the shuttle potential versus applied current, the effective diffusion constant D was estimated to be about 7×10^−7 cm^2/sec, and the maximum current density carried by the shuttle was estimated to be about 2.3 mA/cm^2. Using cyclic voltammetry, the shuttle diffusion constant was determined to be 1.6×10^−6 cm^2/sec. […] Thus, the effective area was less than 1.3 cm^2 and the effective length was greater than 25 μm.

[2] = Shuttle potential versus sequentially increased charge current in coin cell (Imax)
Text: According to the literature (Richardson et al., J. Electrochem. Soc. Vol. 143, 3992 (1996)) the maximum shuttle current for a singly ionized shuttle is given by Imax=FAD C/d, [1] where F is Faraday's number, A is the electrode area, D is an effective diffusion constant of the shuttle species (taking into account both oxidized and reduced forms of the shuttle), C is the total concentration of the shuttle species and d is the distance between the electrodes. To obtain a large shuttle current, the electrolyte should impart a large diffusion constant, D, to the shuttle and support a high shuttle concentration, C. The shuttle diffusion constant usually will increase as the electrolyte solution viscosity decreases. A variety of charge carrying media may be employed in the electrolyte. Exemplary media are liquids or gels capable of solubilizing sufficient quantities of the lithium salt and the redox chemical shuttle so that a suitable quantity of charge can be transported from the positive electrode to negative electrode. […]
Further testing was carried out in coin cells made using 0.2 M 2,5-di-tert-butyl-1,4-dimethoxybenzene and 0.5 M LiBOB in 1:2 PC:DEC. […] Using cyclic voltammetry, the shuttle diffusion constant was determined to be 1.6×10^−6 cm^2/sec. […]

[3] = Extended shuttle-protected overcharge cycling, LiFePO4/graphite cell, 100% overcharge each cycle; settings: 0.2 M shuttle, 0.5 M LiBOB in 1:2 PC:DEC
Method: Further testing was carried out to evaluate currents up to 1/3 of Imax in extended shuttle-protected overcharge tests. […] The shuttle plateau is near 3.9 V because the graphite electrode is near 0 V vs Li/Li^+ when the Li-ion coin cell is fully charged. The charging current was 0.55 mA, which corresponds to about a C/2-rate for the electrodes of this cell. The shuttle continues to perform well after 200 charge discharge cycles. […] In this case, the shuttle was able to protect against overcharge for about 190 cycles, followed by disappearance of the shuttle effect over the next few cycles. […] The loss of shuttle effect at high C rates may have been due to the Li4/3Ti5/3O4 negative electrode dropping below its plateau potential (1.55 V) before reaching the fully discharged state.

[4] = Maximum solubility of shuttle in electrolyte, determined visually; assay type: physicochemical; settings: in the Example 1 and Example 2 electrolyte (0.7 M LiBOB EC:DEC 1:2)
Method: Solubility limits were determined visually, after extended mixing.

[5] = Shuttle molecules tested in LiFePO4/graphite and LiFePO4/Li4/3Ti5/3O4 coin cells, C/10, 100% overcharge; settings: 0.1M shuttle, 0.7 M LiBOB PC:DMC:EC:DEC 1:2:1:2
Method: A variety of shuttle molecules (obtained from Aldrich Chemical Co. and used without further purification) were tested in LiFePO4/graphite and LiFePO4/Li4/3Ti5/3O4 coin cells. The LiFePO4 was obtained from Phostech Lithium as in Example 1 and the Li4/3Ti5/3O4 was obtained from NEI Corp. (Piscataway, N.J., USA). The graphite used was mesocarbon microbeads (MCMB) heat treated to near 2650° C. Electrodes were made from the active materials 10% by weight Super S carbon black (MMM Carbon, Belgium) and 10% by weight PVDF binder. LiFePO4 and Li4/3Ti5/3O4 electrodes were coated on aluminum foil and MCMB electrodes were coated on copper foil. […] The electrolyte was 0.7 M LiBOB in a 1:2:1:2 by volume mixture of PC:DMC:EC:DEC. The shuttle molecule was added in a concentration of 0.1M. Coin cells were charged using currents corresponding to a normal recharge in 10 hours (C/10) to 200% of their normal charge capacity (100% overcharge) or until a specified upper cut-off potential (normally 4.9V versus Li/Li^+) was reached, which ever occurred first and tested until the shuttle ceased to function. Four shuttles were employed, namely 1,3,5-tri-t-butyl-2-methoxybenzene (Example 9), 5-t-butyl-1,3-dinitro-2-methoxybenzene (Example 10), 2-t-butyl-4,6-dinitro-5-methylanisole (Example 11) and 4-t-butyl-2,6-diaminoanisole (Comparison Example 10). The coin cell test results are set out below in Table 2: […]

SMILES: COc1c([N+](=O)[O-])cc(C(C)(C)C)cc1[N+](=O)[O-] [Example 10, 5-t-butyl-1,3-dinitro-2-methoxybenzene]
- Potential V, Li/Li^+ [5]: 4.9 V

SMILES: COc1c(C(C)(C)C)cc([N+](=O)[O-])c(C)c1[N+](=O)[O-] [Example 11, 2-t-butyl-4,6-dinitro-5-methylanisole]
- Potential V, Li/Li^+ [5]: 4.9 V

Continued, values first:

- shuttle diffusion constant [1]: 1.6×10^−6 cm^2/sec
- potential at which the shuttle became oxidized at the LiFePO4 positive electrode ([2]; 0.2 M shuttle, 0.5 M LiBOB in 1:2 PC:DEC): about 3.9 V vs Li/Li^+
- effective diffusion constant D (estimated from shuttle potential versus applied current) ([2]; electrode area 1.3 cm^2, 25 μm separator): about 7×10^−7 cm^2/sec
- shuttle plateau [3]: ~3.9 V
- maximum room temperature solubility [4]: ~90 mM
SMILES: COc1cc(C(C)(C)C)c(OC)cc1C(C)(C)C [2,5-di-tert-butyl-1,4-dimethoxybenzene]

- Potential V, Li/Li^+ [5]: 4.4 V
SMILES: COc1c(C(C)(C)C)cc(C(C)(C)C)cc1C(C)(C)C [Example 9, 1,3,5-tri-t-butyl-2-methoxybenzene]

- Potential V, Li/Li^+ [5]: 4.4 V
SMILES: COc1c(N)cc(C(C)(C)C)cc1N [Comp. Ex. 5, 4-t-butyl-2,6-diaminoanisole, reference compound]
